Experiments:
[1] = system: Prostaglandin D2; experiment: Allergic mediators in nasal fluid (nasal lavage) before and after NAC; type: in vivo, human; conditions: before versus after administration of allergens
Protocol: To test the efficacy of an embodiment of the composition in inhibiting an allergic response, a comparative clinical study was conducted on human subjects. This clinical study consisted of testing twenty subjects for positive allergic reaction to allergen extracts (cat dander, pollen and grass). The subjects were then randomized to receive: a control, specifically a placebo; loratadine, a known anti-histamine drug, sold under the trademark CLARITIN, and a composition of the above embodiments including Picao preto, Acerola, and Cinnamon (referred to herein as the Blend). […]
(§1) During the NAC, subjects had […] increasing doses of allergen (0 (water was administered), 50, 250, 1250, and 6250 Bioequivalent Allergy Units/ml (BAU/ml)) squirted up their noses over a period of two hours. Bioequivalent Allergy Units were calculated using ID50EAL testing (Intradermal Dilution for 50 mm Sum of Erythema Determines Bioequivalent Allergy Units) (Turkeltaub PC, Biological standardization of allergenic extracts. Allergol Immunopathol (Madr). 1989, 17:53-65.
The allergic symptoms of the twenty subjects were measured ten minutes after each exposure to the with an eleven-point Nasal Symptom Scale, (on a scale of 1-11, 11 being the most symptoms observed), which is common to the NAC, to establish the Nasal Symptom Score. […]

[2] = system: allergic response to allergen extracts (cat dander, pollen and grass); experiment: Clinical study with Nasal Allergen Challenge (NAC): symptom scores and sneeze counts; type: in vivo, human
Protocol: To test the efficacy of an embodiment of the composition in inhibiting an allergic response, a comparative clinical study was conducted on human subjects. This clinical study consisted of testing twenty subjects for positive allergic reaction to allergen extracts (cat dander, pollen and grass). The subjects were then randomized to receive: a control, specifically a placebo; loratadine, a known anti-histamine drug, sold under the trademark CLARITIN, and a composition of the above embodiments including Picao preto, Acerola, and Cinnamon (referred to herein as the Blend). Each of these were administered to the subjects in three doses a day for two days before receiving a Nasal Allergen Challenge (NAC), which is a commonly used test for predicting real-life efficacy of allergen treatments. Specifically, Claritin was administered in an amount of 10 mg per dose; the placebo in an amount of 450 mg per dose; and the Blend in an amount of 450 mg per dose, that dose for the Blend including 150 mg Picao preto; 150 mg Acerola and 150 mg Cinnamon. Other suitable Cinnamon levels are in the range of about 25 mg to about 650 mg; suitable Picao preto levels are in the range of 25 to about 650 mg; and suitable Acerola levels are in the range of about 25 mg to about 650 mg.
as §1
To analyze the allergy treatment effects of the Blend, Claritin and the placebo, a composite measurement of blockage, secretion and sneezing was determined. The smallest clinically meaningful difference in allergy treatment effects has been determined to be about a 0.5 score step on an 0 to 9 scale of the composite measurement of blockage, secretion and sneezing. Akerlund, A. et al, Clinical Trial Design, Nasal Allergen Challenge Models and Considerations of relevance to Pediatrics, Nasal Polyposis and Different Classes of Medication. J. Allergy. Clin. Imm., 115 (3.2): S460-482 (March 2005). Measurements used in connection determining blockage, secretion and sneezing were the Nasal Symptoms Score, the Pruritus-Rhinorrhea-Conjunctivitis Score, and sneeze counting, respectively.
The allergic symptoms of the twenty subjects were measured ten minutes after each exposure to the with an eleven-point Nasal Symptom Scale, (on a scale of 1-11, 11 being the most symptoms observed), which is common to the NAC, to establish the Nasal Symptom Score. The subjects also underwent the nasal lavage to collect supernatants which were assayed for allergic reaction and inflammatory mediators: prostaglandin D2; Leukotriene […]; and tryptase.
After the NAC, subjects were released, but continued rating their symptoms every two hours for eight hours using the Nasal Symptom Scale, as well as a 15-point Pruritus-Rhinorrhea-Conjunctivitis Scale, which is a common scale that is intended to be more sensitive than the Nasal Symptom Scale. On this scale, Pruritus, Rhinorrhea, and Conjunctivitis were each rated as none, mild, mild to moderate, moderate, moderate to severe, or severe, scored 0, 1, 2, 3, 4, or 5 points respectively, with a maximum total of 15 points for all three together. In addition, during the eight hour period, the subjects counted and recorded the number of their sneezes within each two-hour period to establish a sneeze count. […]

[3] = system: LTC4 release, RBL-2H3 cells; experiment: LTC4 release from IgE-sensitized, DNP-BSA stimulated RBL-2H3 cells (ELISA); type: cell-based; conditions: 0.1 μg/ml
Protocol: (§2) The methodology used to obtain the results of FIG. 9 will now be described. First, RBL-2H3 cells, available from ATCC (American Type Culture Collection) of Manassas, Va., were plated in 24 well plates at 5×10^4/well. Following adherence, the cells were exposed to the ingredients or combination of ingredients noted in FIG. 9, also referred to as samples. The samples were used at the concentrations noted in Table VI. Stock solutions of all samples were prepared in a solution of DMSO, ethanol, and water present in a ratio of 5:3:2 at 100 mg/ml. Each sample was then diluted in media to the final concentration. The cells were then incubated overnight with the samples. The following day a mouse anti-dinitrophenyl (DNP) IgE antibody, available from Sigma of St. Louis, Mo., was added to the cells at a final concentration of 1 ng/ml. The cells were incubated for 1.5 hr at 37° C. to allow binding of the IgE molecule to the cellular IgE receptor via the constant region of the antibody. Following this incubation period, the cells were washed twice. A solution containing DNP conjugated to BSA (DNP-BSA), available from Calbiochem of San Diego, Calif., was added to the cells at 0.5 ng/ml. […] Next, the measured OD450 data from the ELISA was inputted into a calibration graph to determine the amount by which histamine was reduced relative to an untreated control sample. […]

[4] = system: PGD2 release, RBL-2H3 cells; experiment: PGD2 release from IgE-sensitized, DNP-BSA stimulated RBL-2H3 cells (ELISA); type: cell-based; conditions: 1 μg/ml
Protocol: as §2

[5] = system: histamine release, RBL-2H3 cells; experiment: Histamine release from IgE-sensitized, DNP-BSA stimulated RBL-2H3 cells (ELISA); type: cell-based; conditions: 10 ng/ml
Protocol: The methodology used to obtain the results of FIG. 9 will now be described. First, RBL-2H3 cells, available from ATCC (American Type Culture Collection) of Manassas, Va., were plated in 24 well plates at 5×10^4/well. Following adherence, the cells were exposed to the ingredients or combination of ingredients noted in FIG. 9, also referred to as samples. The samples were used at the concentrations noted in Table VI. Stock solutions of all samples were prepared in a solution of DMSO, ethanol, and water present in a ratio of 5:3:2 at 100 mg/ml. Each sample was then diluted in media to the final concentration. The cells were then incubated overnight with the samples. The following day a mouse anti-dinitrophenyl (DNP) IgE antibody, available from Sigma of St. Louis, Mo., was added to the cells at a final concentration of 1 ng/ml. The cells were incubated for 1.5 hr at 37° C. to allow binding of the IgE molecule to the cellular IgE receptor via the constant region of the antibody. Following this incubation period, the cells were washed twice. A solution containing DNP conjugated to BSA (DNP-BSA), available from Calbiochem of San Diego, Calif., was added to the cells at 0.5 ng/ml. The cells were incubated an additional 1 hr at 37° C. The supernatants were assayed for the presence of histamine, PGD2 and/or LTC4 using ELISA kits commercially available from Cayman Chemical of Ann Arbor, Mich. according to the manufacturer's specifications. Next, the measured OD450 data from the ELISA was inputted into a calibration graph to determine the amount by which histamine was reduced relative to an untreated control sample. An example of a histamine calibration graph is illustrated in FIG. 10. Suffice it to say that calibration graphs for PGD2 and LTC4 are similar. The calibration graph in FIG. 10 was generated by measuring the OD450 of multiple, known concentrations of purified histamine. As shown in the graph, the X-axis indicates the concentrations of the histamine in nanomolar; and the Y-axis indicates the OD450 derived from each of the concentrations. The line 120 connects the data points, while line 130 is a trend line corresponding to the equation in this particular embodiment of: Y=−0.0025X^2+0.2915X+2.0775 Equation 2 With the histamine calibration graph, the amount of histamine for each sample was determined, and the subsequent data was input into Table VI and FIG. 9 for comparative analysis.

[6] = system: IgE receptor (FcεRIα) on RBL-2H3 cells; experiment: IgE receptor expression on RBL-2H3 cells (anti-FcεRIα cell ELISA normalized to MTT viability); type: cell-based
Protocol: The methodology used to obtain the results of FIG. 1 will now be described. First, RBL-2H3 cells, available from ATCC (American Type Culture Collection) of Manassas, Va., were plated in 96 well plates at 3×10^4/well. Following adherence to the wells, the cells were exposed to the sample combinations of ingredients listed in Table I, each combination referred to as a “sample.” Stock solutions of all samples were prepared in a solution of DMSO, ethanol, and water present in a ratio of 5:3:2 at 100 mg/ml. […] Duplicate plates of each sample were prepared so that viability could be determined multiple times for each sample, with the results of the multiple samples averaged following treatment of the cells. The plates were incubated an additional 48 hours. To measure IgE-receptor expression, the cells were fixed for 2 hours with 1% gluteraldehyde. Following fixation, the cells were washed twice with PBS-Tween 20 (0.01%), available from Aldrich of Milwaukee, Wis. Protein binding sites were blocked for 2 hours with 2% non-fat dry milk in PBS (Phosphate Buffer Saline buffered at pH 7.3). The cells were washed twice. The primary antibody, Rabbit anti-FcεRIα, available from Upstate Group, Inc., Lake Placid, N.Y., was added to the wells and diluted 1:4000 with 0.2% BSA (Bovine Serum Albumin). Following a 2 hour incubation, the wells were washed 5× with PBS-Tween 20 (0.01%) solutions. The secondary antibody, Goat anti-rabbit IgG-peroxidase, available from Sigma-Aldrich of St. Louis, Mo., was added to the wells at 1:20000 with 0.2% BSA. Following a 1 hour incubation the wells were washed five times. 100 μliters (microliters) of TMB (3,3′,5,5±Tetramethyl benzidine dihydrochloride) Substrate, available from Chemicon International of Temecula, Calif., was added to the wells. Subsequent color development was stopped by the addition of a sufficient amount, H2SO4 (for example, 100 μliters at 1 Normal). For each of the multiple samples of the combination, the OD450 (Optical Density measured at a wavelength of 450 nanometers) was read on a plate reader. Continuing with a description of the methodology to obtain the data in FIG. 1, the viability of the cells was next determined by incubating the cells in the second plate with MTT in a concentration of 1 mg/ml for 3 hours. The reduced MTT was extracted with 70% isopropanol and the OD540 (Optical Density at a wavelength of 540 nanometers) was read for each of the multiple samples.

[7] = system: IgE secretion by U266 human myeloma cells; experiment: IgE secretion by U266 human myeloma cells (IgE ELISA of supernatants); type: cell-based; conditions: varying concentrations
Protocol: The methodology used to obtain the results of FIG. 3 will now be described. First, U266 human myeloma cells, available from ATCC of Manassas, Va. were plated in 96 well plates at 4×10^4/well. The cells were exposed to the sample combinations of ingredients listed in Table I, each combination referred to as a “sample.” Stock solutions of all samples were prepared in a solution of DMSO, ethanol, and water present in a ratio of 5:3:2 at 100 mg/ml. Each sample was then diluted to 100 μg/ml in media. Duplicate plates of each sample were prepared so that viability could be determined multiple times for each sample, with the results of the multiple samples averaged following treatment of the cells. The plates were incubated an additional 48 hours. Thereafter, the amount of IgE in the supernatants was measured using a conventional quantitative IgE ELISA kit available from Bethyl Laboratories of Montgomery, Tex. Next, the measured OD450 data from the IgE ELISA was inputted into a calibration graph, illustrated in FIG. 4, to determine the concentration of IgE in ng/ml in each supernatant. This calibration graph was generated by measuring the OD450 of multiple, known concentrations (in nanograms per ml) of purified IgE. As shown in the graph, the X-axis indicates the concentrations of the IgE in ng/ml; and the Y-axis indicates the OD450 derived from each of the concentrations. The line 100 connects the data points, while line 110 is a trend line corresponding to the equation in this particular embodiment of: Y=0.2909X−0.2527 Equation 1 With the IgE calibration graph, the amount of IgE for each sample was determined, and the subsequent data was input into FIG. 3 for comparative analysis.

[8] = immediate phase (two hours during the NAC)

CCOC(=O)N1CCC(=C2c3ccc(Cl)cc3CCc3cccnc32)CC1 [Claritin, loratadine]
change of Prostaglandin D2 in nasal fluid after the NAC (FIG. 19) [1]: significant rise | Nasal Symptom Scores versus placebo ([2]; delayed phase, at six hours and overall, Blend 450 mg per dose, Claritin 10 mg): significantly fewer | Nasal Symptom Score versus placebo (FIG. 15) ([2]; delayed phase, at two hours): trends toward significantly fewer symptoms | PRC score versus the Blend [2, 8]: lower PRC score | sneezes versus the Blend [2, 8]: fewer sneezes | Nasal Symptom Score versus the Blend ([2]; immediate phase (two hours during the NAC), Claritin 10 mg per dose): lower Nasal Symptom Score | Nasal Symptom Score Areas Over the Curve versus placebo (FIG. 18) ([2]; total product effect over eight hours): significantly better than the placebo

O=C(/C=C/c1ccc(O)c(O)c1)O[C@H](Cc1ccc(O)c(O)c1)C(=O)O [Rosmarinic acid]
Percent Control LTC4 Release (Table VI) [3]: 120% | Percent Control of PGD2 Release (Table VI) [4]: 94% | Percent Control of Histamine Release (Table VI) [5]: 9.3%

O=C1O[C@H]([C@@H](O)CO)C(O)=C1O [Vitamin C]
decrease in IgE receptor expression (FIG. 5) ([6]; 200 micrograms per milliliter): 15% | effect on IgE receptor expression, in words (FIG. 5) ([6]; varying concentrations): significant effect | inhibition of IgE secretion, in words (FIG. 6) [7]: inhibited IgE secretion

— patent publication US7384656B2, “Anti-allergy composition and related method” (Access Business Group International LLC, priority 2004, dated 2008)
